In patent US9980943B2, “Methods of treating muscular dystrophy” (BOARD OF REGENTS OF THE NEVADA SYSTEM OF HIGHER EDUCATION, …, priority 2013, dated 2018):

How the values were obtained:
Assay type in all cases: cell-based, mouse
[1] = tested on: α7 integrin (LacZ reporter in α7+/LacZ myotubes); experiment: Myotube α7 integrin FDG assay (Burkin assay in myotubes, 96-well); conditions: myotubes
[2] = tested on: β-galactosidase in CMV-LacZ C2C12 myoblasts; experiment: CMV-LacZ secondary screen in C2C12 myoblasts (β-Gal stabilizing assay); conditions: CMV-LacZ C2C12 myoblasts
Procedure, shortened: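 CMV-LacZ C2C12 line (clonal, FDG-screened); myoblasts/myotubes dosed 0.5–40 μM (0.5, 1, 5, 10, 20, 40 μM); n=2 per point; β-gal stabilization read-out.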

[3] = tested on: α7 integrin (LacZ reporter in α7βgal+/− myoblasts); experiment: Myoblast α7+/LacZ integrin FDG assay (Burkin assay in myoblasts, 96-well); conditions: α7+/LacZ myoblasts, 96-well
[4] = tested on: β-galactosidase in CMV-LacZ C2C12 myotubes; experiment: CMV-LacZ secondary screen in C2C12 myotubes (β-Gal stabilizing assay); conditions: C2C12 CMV-LacZ myotubes, fold relative to DMSO
Procedure, shortened: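 β-Gal level was the read-out, measured in a clonal C2C12 line expressing LacZ from a CMV promoter. Dose-response curves used six concentrations, 0.5 μM up to 40 μM, with duplicate points.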

| SMILES | Burkin Assay in Myotubes, α7 integrin LacZ reporter signal relative to DMSO ([1]; 0.5 uM) | Burkin Assay in Myotubes, α7 integrin LacZ reporter signal relative to DMSO ([1]; 1 uM) | Burkin Assay in Myotubes, α7 integrin LacZ reporter signal relative to DMSO ([1]; 5 uM) | Burkin Assay in Myotubes, α7 integrin LacZ reporter signal relative to DMSO ([1]; 10 uM) | Burkin Assay in Myotubes, α7 integrin LacZ reporter signal relative to DMSO ([1]; 20 uM) | Burkin Assay in Myotubes, α7 integrin LacZ reporter signal relative to DMSO ([1]; 40 uM) | CMV-LACZ in Myoblasts (β-galactosidase activity relative to DMSO) ([2]; 0.5 uM) | CMV-LACZ in Myoblasts (β-galactosidase activity relative to DMSO) ([2]; 1 uM) | CMV-LACZ in Myoblasts (β-galactosidase activity relative to DMSO) ([2]; 5 uM) | CMV-LACZ in Myoblasts (β-galactosidase activity relative to DMSO) ([2]; 10 uM) | CMV-LACZ in Myoblasts (β-galactosidase activity relative to DMSO) ([2]; 20 uM) | CMV-LACZ in Myoblasts (β-galactosidase activity relative to DMSO) ([2]; 40 uM) | Burkin Assay in Myoblasts, signal relative to DMSO ([3]; 0.5 uM) | Burkin Assay in Myoblasts, signal relative to DMSO ([3]; 1 uM) | Burkin Assay in Myoblasts, signal relative to DMSO ([3]; 5 uM) | Burkin Assay in Myoblasts, signal relative to DMSO ([3]; 10 uM) | Burkin Assay in Myoblasts, signal relative to DMSO ([3]; 20 uM) | Burkin Assay in Myoblasts, signal relative to DMSO ([3]; 40 uM) | CMV-LACZ in Myotubes, signal relative to DMSO ([4]; 0.5 uM) | CMV-LACZ in Myotubes, signal relative to DMSO ([4]; 1 uM) | further results |
| --- | --- | --- | --- | --- | --- | --- | --- | --- | --- | --- | --- | --- | --- | --- | --- | --- | --- | --- | --- | --- | --- |
| COC(=O)c1ccc(N=Nc2ccccc2)cc1 [MLS001005712-01] | 0.8704 | 1.173 | 0.9472 | 0.939 | 0.7885 | 0.7405 | 1.0188 | 1.2385 | 0.8934 | 0.9125 | 1.0241 | 1.0230 | 1.1047 | 1.17 | 0.926 | 0.8783 | 0.8763 | 0.764 | 1.0684 | 1.0379 | CMV-LACZ in Myotubes, signal relative to DMSO ([4]; 5 uM): 0.9623; CMV-LACZ in Myotubes, signal relative to DMSO ([4]; 10 uM): 0.8075; CMV-LACZ in Myotubes, signal relative to DMSO ([4]; 20 uM): 1.1133; CMV-LACZ in Myotubes, signal relative to DMSO ([4]; 40 uM): 1.3167 |
| NS(=O)(=O)c1ccc(NC(=O)CN2CCc3ccccc32)cc1 [MLS000850522-01] | 0.9439 | 0.9058 | 1.11 | 0.9263 | 0.9416 | 0.9324 | 0.8880 | 1.3763 | 0.8809 | 0.8671 | 0.8358 | 1.0091 | 0.7993 | 0.9332 | 1.307 | 1.003 | 0.8743 | 0.8805 | 0.8848 | 0.8933 | CMV-LACZ in Myotubes, signal relative to DMSO ([4]; 5 uM): 1.1090; CMV-LACZ in Myotubes, signal relative to DMSO ([4]; 10 uM): 1.0751; CMV-LACZ in Myotubes, signal relative to DMSO ([4]; 20 uM): 1.0580; CMV-LACZ in Myotubes, signal relative to DMSO ([4]; 40 uM): 1.0200 |
| COC(=O)c1cc(S(=O)(=O)NCC2CCN(Cc3ccc(Cl)cc3)CC2)cn1C [MLS001095033-01] | 0.9959 | 0.9488 | 0.944 | 0.9298 | 0.8938 | 0.9158 | 0.9488 | 0.9179 | 0.9043 | 1.0269 | 0.9359 | 0.9811 | 1.281 | 1.186 | 0.9632 | 0.9614 | 1.125 | 1.0618 | 1.2895 | 1.0867 | CMV-LACZ in Myotubes, signal relative to DMSO ([4]; 5 uM): 1.0230; CMV-LACZ in Myotubes, signal relative to DMSO ([4]; 10 uM): 1.0031; CMV-LACZ in Myotubes, signal relative to DMSO ([4]; 20 uM): 1.0326; CMV-LACZ in Myotubes, signal relative to DMSO ([4]; 40 uM): 1.0358 |
| CCN(CC(=O)NCc1cccs1)C(=O)COc1ccc(C(N)=O)cc1 [MLS002163101-01] | 1.045 | 0.9075 | 1.101 | 1.302 | 0.7782 | 0.9761 | 0.9991 | 1.0317 | 1.0262 | 1.0313 | 0.9644 | 1.1556 | 0.9552 | 0.9442 | 0.9699 | 1.251 | 0.9457 | 0.9775 | 1.0533 | 1.1400 | CMV-LACZ in Myotubes, signal relative to DMSO ([4]; 5 uM): 0.8302; CMV-LACZ in Myotubes, signal relative to DMSO ([4]; 10 uM): 0.8407; CMV-LACZ in Myotubes, signal relative to DMSO ([4]; 20 uM): 0.9212; CMV-LACZ in Myotubes, signal relative to DMSO ([4]; 40 uM): 1.5447 |
| Fc1ccc(-c2ccnc3nc(N4CCN(c5ccccc5)CC4)nn23)cc1 [MLS000546316-01] | 1.137 | 1.174 | 1.066 | 1.099 | 0.8571 | 1.176 | 1.0623 | 1.1373 | 0.8090 | 1.2440 | 1.3463 | 1.5049 | 1.159 | 1.223 | 1.164 | 1.123 | 1.026 | 1.027 | 1.2590 | 1.0019 | CMV-LACZ in Myotubes, signal relative to DMSO ([4]; 5 uM): 1.0040; CMV-LACZ in Myotubes, signal relative to DMSO ([4]; 10 uM): 1.0825; CMV-LACZ in Myotubes, signal relative to DMSO ([4]; 20 uM): 1.0190; CMV-LACZ in Myotubes, signal relative to DMSO ([4]; 40 uM): 1.2640 |
